This note sets out measurements from paper PMC9705435, “Thiocarbazate building blocks enable the construction of azapeptides for rapid development of therapeutic candidates” (Nature Communications, 2022).

SMILES strings stand for the structures. Numbered stars: 1 amine (or outer) side, 2 acyl side, 3 side chain; on linkers, the order of the positions; unused ones are H or OH. Square brackets hold non-standard residues; d marks the D form. Peptide text beside a SMILES is read from it. azaPhe = O=C(N(Cc1ccccc1)N[*:1])[*:2]; azaPro = O=C(N1CCCN1[*:1])[*:2]

One data set has as its target T1, 3T3 cells (Mus musculus, UniProt P32299).
T1 sequence (P32299 1-392): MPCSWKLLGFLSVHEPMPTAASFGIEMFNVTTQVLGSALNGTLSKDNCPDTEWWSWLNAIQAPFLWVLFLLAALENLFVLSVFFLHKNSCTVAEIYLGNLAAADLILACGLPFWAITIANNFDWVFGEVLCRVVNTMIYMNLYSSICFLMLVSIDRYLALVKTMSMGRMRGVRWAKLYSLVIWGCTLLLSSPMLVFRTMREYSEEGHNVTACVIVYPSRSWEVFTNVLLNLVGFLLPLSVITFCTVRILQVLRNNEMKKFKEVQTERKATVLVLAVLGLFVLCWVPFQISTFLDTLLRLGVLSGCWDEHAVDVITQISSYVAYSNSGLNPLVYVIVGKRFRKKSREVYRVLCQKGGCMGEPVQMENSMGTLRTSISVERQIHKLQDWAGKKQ
The experiment in a line: PGE2 induction in 3T3 fibroblasts (ELISA). It is filed as cell-based. The settings on record: 7 min, serum-free medium. A general note: An ELISA detects its analyte on a solid surface through an enzyme-linked reagent.

A short description of a further data set: in vitro. The conditions noted are these: male, C57BL/6J, mouse, blood.
A further data set concerns the target T2, HMGB1/MD-2 binding (Homo sapiens, UniProt Q9Y6Y9).
T2 construct: purchased R&D Systems 1787-MD
T2 sequence (Q9Y6Y9 17-160 limits assumed): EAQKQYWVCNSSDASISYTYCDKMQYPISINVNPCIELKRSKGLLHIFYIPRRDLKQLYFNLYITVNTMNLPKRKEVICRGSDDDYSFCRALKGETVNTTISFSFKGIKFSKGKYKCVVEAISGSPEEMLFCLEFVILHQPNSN
Briefly: SPR HMGB1/MD-2 binding inhibition assay. The settings on record: immobilized disulfide HMGB1, MD-2 0.25 µM.

Data set [1] has as its target T3, Human B2 (h) receptor (B2R) (Homo sapiens, UniProt P30411).
T3 construct: host or cells: CHO cells
T3 sequence (P30411 1-391): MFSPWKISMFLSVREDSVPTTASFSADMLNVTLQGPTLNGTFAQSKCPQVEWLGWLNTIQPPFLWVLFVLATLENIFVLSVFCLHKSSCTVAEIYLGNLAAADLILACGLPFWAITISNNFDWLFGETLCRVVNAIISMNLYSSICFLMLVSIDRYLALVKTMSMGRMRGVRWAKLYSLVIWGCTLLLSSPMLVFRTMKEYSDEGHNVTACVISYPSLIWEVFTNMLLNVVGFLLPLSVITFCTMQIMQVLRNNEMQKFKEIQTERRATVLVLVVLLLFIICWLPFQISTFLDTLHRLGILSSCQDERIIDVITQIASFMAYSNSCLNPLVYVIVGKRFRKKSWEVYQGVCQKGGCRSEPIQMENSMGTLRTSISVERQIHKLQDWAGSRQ
The experiment in a line: Human B2 (h) (agonist radioligand) receptor binding assay, [3H]bradykinin displacement. From the text:
The data was collected by CRO Eurofins Cerep (France) and the result is attached as an additional data file. B2R radioligand agonist binding displacement assay for determination of IC-50.
Test compounds (FI-U / [azaP2, azaF8-BK (70), FI-2V / azaF8-BK (68), and FI-8G / azaP2-BK (63)) were supplied to Eurofins in a blinded manner and run at five concentrations to determine the IC-50’s. Standard company control test compounds were used for assay validation. Experimental assays achieved inhibition of more than 50% and were considered to represent significant effects of the test compounds.
(B2(h)) was used as the agonist for B2R receptor binding. The results are expressed as a percent of control specific binding (measured specific binding /control specific binding)*100, and as a percent inhibition of control specific binding (100 minus (measured specific binding/ control specific binding)*100) obtained in the presence of the test compounds. The IC50 values (concentration causing a half-maximal inhibition of control specific binding) and Hill coefficients (nH) were determined by non-linear regression analysis of the competition curves generated with mean replicate values using Hill equation curve fitting Y=D+[ A-D / 1+(C/C50) nH] where Y = specific binding, A = left asymptote of the curve, D = right asymptote of the curve, C = compound concentration, C50 = IC50, and nH = slope factor. This analysis was performed using software developed at Cerep (Hill software) and validated by comparison with data generated by the commercial software SigmaPlot® 4.0 for […]
The inhibition constants (Ki) were calculated using the Cheng Prusoff equation. Ki=IC50/(1+L/Kd) where L = concentration of radioligand in the assay, and Kd = affinity of the radioligand for the receptor. A scatchard plot is used to determine the Kd. […]
9.1. Experimental Conditions
9.1.1. In Vitro Pharmacology: Binding Assays
Assay Source Ligand Conc. Kd Non Specific Incubation Detection Bibl.
(agonist recombinant (1 µM) RT counting
9.2. Analysis and expression of results
9.2.1. In Vitro Pharmacology: Binding Assays
The results are expressed as a percent of control specific binding measured specific binding *100 […]
and as a percent inhibition of control specific binding
100-( measured specific binding *100) […]
obtained in the presence of the test compounds.
The IC50 values (concentration causing a half-maximal inhibition of control specific binding) and Hill coefficients (nH) were determined by non-linear regression analysis of the competition curves generated with mean replicate values using Hill equation […]
where Y = specific binding, A = left asymptote of the curve, D = right asymptote of the curve, C = compound concentration, C50 = IC50, and nH = slope factor. This analysis was performed using software developed at Cerep (Hill software) and validated by […]
The inhibition constants (Ki ) were calculated using the Cheng Prusoff equation where L = concentration of radioligand in the assay, and KD = affinity of the radioligand for the receptor. A scatchard plot is used to […]

The test system of another data set is murine monocytes. Briefly: HMGB1-stimulated TNF release in murine splenic monocytes (ELISA). The class given is cell-based, mouse. The conditions noted are these: 0.1, 1 or 10 µM peptide, HMGB1 1 µg/ml, 24 h. From the text:
4.2 HMGB1 protein preparation
For TNF ELISA experiments, […]

The conditions of data set [2]: male, C57BL/6J, mouse, blood.
The test system of data set [3] is STZ-induced type 1 diabetic (T1D) mice. Briefly: Low-dose streptozotocin (STZ)-induced type 1 diabetes in mice. The settings on record: 500 µg/mouse/day i.p.
Protocol: Data are presented as means ± SD. […] Mice were simultaneously injected i.p. with saline, FSSE (500 µg/mouse/day), or azaF^1SSazaE^4 (500 µg/mouse/day). Blood glucose was measured on day 0, 7 and 14. Number of mice per group: saline n = 7; FSSE n = 8; azaF^1SSazaE^4 n = 8. Data are presented as mean values ± SEM. […] Serum samples from mice challenged with STZ were collected at day 14 and analyzed by ELISA. n = 7 mice per group. Data are presented as mean values ± SEM. […] Number of islets per group: saline n = 3, 13 islets; FSSE n = 2, 11 islets; azaF^1SSazaE^4 n = 3, 23 islets. P-value was calculated using two-sided Fisher’s exact test to compare islets without (score 0) and with (score 1-4) insulitis. Pancreas tissue was histologically analyzed from 2–3 animals per group. Representative hematoxylin and eosin (H&E) stained images of islets from each group are shown (right panel). Scale bars, 50 μm.
given free access to water and standard rodent chow and were acclimated to their environment for at least 1 week before experimentation.
4.5 STZ-induced type 1 diabetes in mice
Induction of Diabetes T1D was induced by administration of streptozotocin (STZ) (Sigma-Aldrich) (50 mg/kg dissolved in sodium citrate buffer, pH 4.5) to 6-8 weeks old C57Bl/6J mice intraperitoneally (i.p.) once each day for 5 consecutive days.
Mice were given water supplemented with 10% sucrose (Sigma-Aldrich) for six days to prevent sudden hypoglycemia during streptozotocin administration.
of FSSE, azaF1SSazaE4 or saline. Blood glucose with either FreeStyle Lite blood glucose meter (Abbot Diabetes Care, Inc.) or Bayer Contour blood glucose meter (Bayer HealthCare, LLC.) and body weight were measured once weekly. At the end of each study, mice were euthanized by CO2 asphyxiation. Blood and pancreas were collected for further analysis.
Pancreas were fixed in 10% formalin and processed for paraffin embedding (AML Laboratory and Genecopoeia). 7-μm-thick sections were stained with hematoxylin/eosin (Genecopoeia) and the degree of insulitis was eva luated microscopically. Islets were analyzed in multiple sections at 20×.

What is called EC50 is the concentration needed to bring the measured effect to its halfway point. Higher therefore signals a need for much substance. Usually half-life stands for the time needed for the level to fall by half in the phase considered. A lower half-life goes with rapid decline. In general, IC50 refers to the concentration that gives 50% inhibition. A higher IC50 goes with a need for much substance. The term Ki denotes the equilibrium dissociation constant of an inhibitor or competing ligand from its target. Read a low Ki as tighter binding.

Protocol for 3T3 cells: Subconfluent monolayers of 3T3 cells were incubated with test compounds for 7 min in serum-free medium and supernatants were collected and analyzed for PGE2 by ELISA.
5.1 In vitro PGE2 induction
3T3 Swiss Albino cell line (ATCC CCL-92) was purchased from American Type Culture Collection (Manassas, VA).
Following trypsinization, cells were washed and resuspended in DMEM-Complete at a cell density of 0.03 x 10^6 cells per ml. Cells were seeded into 96 -well flat-bottomed culture plates (6 x 10^3 cells per well in 200 µl). After one day of culture, 3T3 cell monolayers were washed two times in pre-warmed DMEM supplemented with 20 mM HEPES (DMEM-HEPES) and DMEM-HEPES
supernatants were collected and immediately frozen at -20°C for future PGE2 analyses. PGE2 levels in supernatants were determined using PGE2 ELISA kit (Enzo Life Sciences, Farmingdale, NY) following manufacturer’s instructions. Samples were assayed in quadruplicate. PGE2 ELISA data were analyzed using GraphPad Prism Version 9.3.1.

For `NC(N)=NCCC[C@H](NC(=O)[C@H](Cc1ccccc1)NC(=O)[C@@H]1CCCN1C(=O)[C@H](CO)NC(=O)[C@H](Cc1ccccc1)NC(=O)CNC(=O)[C@@H]1CCCN1C(=O)[C@@H]1CCCN1C(=O)[C@@H](N)CCCN=C(N)N)C(=O)O` [Bradykinin, reference compound] (H-RPPGFSPFR-OH), the EC50 at 3T3 cells came out at 44.4 nM. In the data set “in vitro”, this compound gave a half-life of 5.29 ± 0.5 min.

`NC(=O)CCN(NC(=O)[C@H](CO)NC(=O)[C@H](CO)NC(=O)N(N)Cc1ccccc1)C(N)=O` [Compound 57, azaF^1SSazaQ^4-NH2] registered a half-maximal inhibitory concentration (IC50) at HMGB1/MD-2 binding of 83 nM. This compound showed a half-life in the data set “in vitro” greater than 120 min.

At HMGB1/MD-2 binding, `NC(=O)CCN(NC(=O)[C@H](CO)NC(=O)[C@H](CO)NC(=O)[C@@H](N)Cc1ccccc1)C(N)=O` [Compound 58, FSSazaQ^4-NH2] showed an IC50 of 423 nM. This compound also gave a half-life in the data set “in vitro” (Ex-vivo stability t 1/2) of 2.9 ± 0.2 min.

On to `N=C(N)NCCC[C@H](NC(=O)[C@H](Cc1ccccc1)NC(=O)[C@@H]1CCCN1C(=O)[C@H](CO)NC(=O)[C@H](Cc1ccccc1)NC(=O)CNC(=O)[C@@H]1CCCN1C(=O)N1CCCN1C(=O)[C@@H](N)CCCNC(=N)N)C(=O)O` [Compound 63, RazaP^2PGFSPFR] (H-R[azaPro]PGFSPFR-OH; N-terminus and C-terminus assumed), for which the IC50 in data set [1] was determined as 7.9 nM. Moreover, in data set [1], the affinity, expressed as Ki, was 4.5 nM. Besides, the “% Inhibition of Control Specific Binding, 1st” value (shortened to “% Inhibition … 1st”) is 98.9% in data set [1] (1.0E-06 M); 94.6% in data set [1] (1.0E-07 M); 58.5% in data set [1] (1.0E-08 M); 0.2% in data set [1] (1.0E-09 M); 86.3% in data set [1] (3.0E-08 M). Also, the “% Inhibition of Control Specific Binding, 2nd” value (from here on “% Inhibition … 2nd”) in data set [1] (1.0E-06 M) is given as 98.6%; in data set [1] (1.0E-07 M), 95.1%; in data set [1] (1.0E-08 M) it was 56.4%; in data set [1] (1.0E-09 M), -3.4%; in data set [1] (3.0E-08 M), 63.9%. The “% Inhibition of Control Specific Binding, Mean” value (“% Inhibition … Mean” for short) in data set [1] (1.0E-06 M) is reported as 98.8%; in data set [1] (1.0E-07 M) it was 94.9%; in data set [1] (1.0E-08 M), 57.4%; in data set [1] (1.0E-09 M), -1.6%; in data set [1] (3.0E-08 M) it was 75.1%. The same compound came in with an EC50 on 3T3 cells of 61.1 nM. Besides, the half-life in “in vitro” came to 5.4 ± 1.1 min.

`N=C(N)NCCC[C@H](NC(=O)N(Cc1ccccc1)NC(=O)[C@@H]1CCCN1C(=O)[C@H](CO)NC(=O)[C@H](Cc1ccccc1)NC(=O)CNC(=O)[C@@H]1CCCN1C(=O)[C@@H]1CCCN1C(=O)[C@@H](N)CCCNC(=N)N)C(=O)O` [Compound 68, RPPGFSPazaF^8R] (H-RPPGFSP[azaPhe]R-OH; N-terminus and C-terminus assumed) showed an IC50 in data set [1] of 8.8 nM. This compound also returned a Ki in data set [1] of 4.1 nM. For the same compound, the “% Inhibition … 1st” value in data set [1] (1.0E-06 M) was 99.7%; in data set [1] (1.0E-07 M), 98.0%; in data set [1] (1.0E-08 M) it was 61.5%; in data set [1] (1.0E-09 M), 8.0%; in data set [1] (3.0E-08 M) it was 72.4%. The “% Inhibition … 2nd” value in data set [1] (1.0E-06 M) was 100.1%; in data set [1] (1.0E-07 M), 95.2%; in data set [1] (1.0E-08 M), 66.7%; in data set [1] (1.0E-09 M), 2.9%; in data set [1] (3.0E-08 M) it was 64.6%. The “% Inhibition … Mean” value in data set [1] (1.0E-06 M) came out at 99.9%; in data set [1] (1.0E-07 M) it was 96.6%; in data set [1] (1.0E-08 M), 64.1%; in data set [1] (1.0E-09 M), 5.4%; in data set [1] (3.0E-08 M), 68.5%. Also, the EC50 on 3T3 cells was 99.6 nM. Also, the half-life in the data set “in vitro” was determined as 39.3 ± 2.5 min.

In the case of `N=C(N)NCCC[C@H](NC(=O)N(Cc1ccccc1)NC(=O)[C@@H]1CCCN1C(=O)[C@H](CO)NC(=O)[C@H](Cc1ccccc1)NC(=O)CNC(=O)[C@@H]1CCCN1C(=O)N1CCCN1C(=O)[C@@H](N)CCCNC(=N)N)C(=O)O` [Compound 70, RazaP^2PGFSPazaF^8R] (H-R[azaPro]PGFSP[azaPhe]R-OH; N-terminus and C-terminus assumed), the IC50 in data set [1] stood at 11 nM. For the same compound, the Ki in data set [1] was determined as 5.6 nM. Besides, the “% Inhibition … 1st” value in data set [1] (1.0E-06 M) is listed as 97.1%; in data set [1] (1.0E-07 M), 84.7%; in data set [1] (1.0E-08 M), 36.3%; in data set [1] (1.0E-09 M) it was -9.2%; in data set [1] (3.0E-08 M) it was 67.6%. In addition, the “% Inhibition … 2nd” value is recorded as 99.5% in data set [1] (1.0E-06 M); 91.4% in data set [1] (1.0E-07 M); 48.4% in data set [1] (1.0E-08 M); 8.0% in data set [1] (1.0E-09 M); 73.7% in data set [1] (3.0E-08 M). Moreover, the “% Inhibition … Mean” value in data set [1] (1.0E-06 M) is 98.3%; in data set [1] (1.0E-07 M), 88.1%; in data set [1] (1.0E-08 M), 42.3%; in data set [1] (1.0E-09 M) it was -0.6%; in data set [1] (3.0E-08 M), 70.6%. Further, at 3T3 cells, a half-maximal effect (EC50) was put at 80.6 nM. In “in vitro”, the half-life was 29.2 ± 3.8 min.

Regarding `NC(=O)[C@H](CCC(=O)O)NC(=O)[C@H](CO)NC(=O)[C@H](CO)NC(=O)[C@@H](N)Cc1ccccc1` [FSSE-NH2 (P5779), FSSE-NH2, reference compound], the “HMGB1-induced TNF production” value in the data set with murine monocytes is “dose-dependently reduced”. For the same compound, the “Ex-vivo stability t 1/2” value in data set [2] is reported as 2.0 ± 0.06 min. Also, the half-life in the data set “in vitro” (Ex-vivo stability t 1/2) is less than 2 min. Further, in data set [3] (2 weeks of treatment, H&E), the “severity of insulitis (insulitis scores)” value is recorded as “reduced”. In addition, the development of hyperglycemia result in data set [3] (vs diabetic (saline) group) was “no significant effect”.
